Data reported in US20260102417A1, “COMPOSITIONS FOR THE TREATMENT AND PREVENTION OF CANCER” (Keyzell Holding S.L., priority 2022, published 2026).
Entries after “also recorded” stand apart in the source; their conditions may differ.

Key:
[1] = test system: B16F10 cells (mouse melanoma model); test: Mouse melanoma model: B16F10 cells subcutaneously in C57BL/6J female mice; format: in vivo; conditions: FIG. 11, treatments administered for 7-9 days, 30 mg/kg per Table 2
Source text: For in vivo studies, the drugs fosaprepitant dimeglumine salt (CAS No 265121-04-8, Selleck Chemicals), Cerenia® (Maropitant citrate injectable solution; Zoetis US), InVivoMAb Anti-mouse CTLA-4 (CD152) (BE0032, Bio cell), InVivoMAb Anti-mouse PD-1 (CD279) (BE0146, Bio cell) and Rat IgG2a k isotype (ref BE0089) were used.
B16F10 cells (1×10^6 per mouse) were subcutaneously injected into the right flank of C57BL/6J female mice (Charles River) with matrigel (Matrigel Membrane Matrix, Corning) at 50% v/v. Tumour growth was evaluated every 2/3 days. Animal vital parameters were monitored daily. When the tumours reached an average volume of 100-150 mm^3, mice were randomised into cohorts of 6 animals and treatments were administered for 7-9 days. Groups and regimens for each experiment are described in Table 2. Animals of the control group were dosed with equal volume of vehicle. Animals were euthanized according to institutional guidelines and tumour samples were excised. Tumours were snap-frozen in OCT medium (Sakura Tissue Tek) or fixed in PFA and embedded in paraffin. Several internal organs were also excised and fixed in PFA for future studies.

[2] = test system: osteoclastic osteosarcoma clinical stage IV; test: Compassionate use of aprepitant in a patient with osteosarcoma; format: in vivo, human
Protocol: On Dec. 9, 2022 the patient was approved for compassionate use of aprepitant at a dose of 4200 mg orally divided into 3 doses (the total daily dose being 4200 mg) along with ifosfamide and etoposide as a fourth line of treatment. Close clinical surveillance of the patient was initiated to monitor quality of life, functional status and manifestation of adverse reactions to treatment, as well as periodic serological surveillance and measurement of response to treatment by imaging studies using the RECIST 1.1 criteria.

[3] = test system: a range of provoked cancers and tumours; conditions: immunocompromised nude mice; 10-80 mg/kg per day, up to 28 days; cited from earlier work
[4] = test system: cell lines of Table 1 (3LL, 4T1, B16F10, CT26WT, PTEN, RT112, MCF7 cells); test: MTT cell viability (cytotoxicity) assay in tumour cell lines, FIGS. 1-9; format: cell-based, mouse, rat and human; conditions: cell viability after 24 hours or 48 hours
Protocol: 21 Cell lines of three different species (mouse, rat and human) were used in this study (Table 1). All of them were maintained in culture in their respective culture media (Gibco, Thermo Fisher Scientific) supplemented with 10% fetal bovine serum (FBS) (Gibco, Thermo Fisher Scientific), 2 mM L-Glutamine (Sigma-Aldrich, Merk), and Peni-Strep (50 U/ml and […]; Gibco, Thermo Fisher Scientific) in a humidified incubator at 37° C. and 5% CO2.
The cytotoxicity of the drugs in culture was evaluated using the 3-(4,5-Dimethyl-2-thiazolyl)-2,5-diphenyl-2H-tetrazolium bromide (MTT) reduction assay. The assay assesses cell viability through the indirect measurement of the activity of reductases that convert yellow soluble MTT into purple insoluble formazan salts. As MTT can only be reduced when these enzymes are active, the reaction is used as an indicator of the cell metabolic competence and, therefore, of viability.
A variable number of cells (depending on the cell line) were seeded in 96 multi-well plates and grown during 24 Hours Cell Viability. The following day the culture medium was aspirated and fresh culture medium with the drug dissolved was added to the wells. After 24 Hours Cell Viability or 48 Hours Cell Viability cell viability was measurement by adding 10 μl of a 5 mg/ml MTT solution (M5655; Sigma-Aldrich) and 100 μl of a Hcl 0.01M-SDS 10% solution 4 hours later. After 24 Hours Cell Viability, the absorbance was measured at 595 nm, using a multi-well plate reader (iMark, Bio-rad).

[5] = test system: osteosarcoma cell line, MG-63; conditions: immunocompromised nude mice; injected weekly at 80 mg/kg; cited from earlier work
[6] = Feb. 6, 2023, aprepitant 4200 mg per day with ifosfamide and etoposide
[7] = PET/CT Jan. 9, 2023, aprepitant 4200 mg per day with ifosfamide and etoposide
[8] = aprepitant 4200 mg per day with ifosfamide and etoposide

SMILES: CNC[C@H](O)[C@@H](O)[C@H](O)[C@H](O)CO.CNC[C@H](O)[C@@H](O)[C@H](O)[C@H](O)CO.C[C@@H](O[C@H]1OCCN(Cc2nc(=O)n(P(=O)(O)O)[nH]2)[C@H]1c1ccc(F)cc1)c1cc(C(F)(F)F)cc(C(F)(F)F)c1 [fosaprepitant-dimeglumine, 1-Deoxy-1-(methylamino)-D-glucitol[3-[[(2R,3S)-2-[(1R)-1-[3,5-bis(trifluoromethyl)phenyl]ethoxy]-3-(4-fluorophenyl)-4-morpholinyl]methyl]-2,5-dihydro-5-oxo-1H-1,2,4 triazol-1-yl]phosphonate (2:1) (salt)]
- tumoral growth [1]: reduces tumoral growth

SMILES: COc1ccc(C(C)(C)C)cc1CN[C@H]1C2CCN(CC2)[C@H]1C(c1ccccc1)c1ccccc1 [Maropitant]
- tumoral growth [1]: reduces tumoral growth

SMILES: C[C@@H](O[C@H]1OCCN(Cc2nc(=O)[nH][nH]2)[C@H]1c1ccc(F)cc1)c1cc(C(F)(F)F)cc(C(F)(F)F)c1 [aprepitant, 5-[[(2R, 3S)-2-[(1R)-1-[3,5-bis(trifluoromethyl)phenyl]ethoxy]-3-(4-fluorophenyl)-4-morpholinyl]methyl]-1,2-dihydro3H-1,2,4-triazol-3-one]
- left upper nodule [2, 6]: 21 mm
- pulmonary nodule in left lower lobe [2, 6]: 16.5 mm
- pulmonary nodule in left lower nodule [2, 6]: 10 mm
- size of bilateral pulmonary nodules and masses of right predominance [2, 6]: slight increase in the size
- largest of two basal nodules, left lung [2, 7]: 20 mm
- nodule in the left upper lower lobe [2, 7]: 16 mm
- nodules in the posterior apical segment, left lung [2, 7]: 21 mm
- diameter of solid nodule, right pleura, hilar in the middle lobe ([2]; PET/CT Jan. 9, 2023, aprepitant 4200 mg per day with ifosfamide and etoposide since Dec. 9, 2022): 42 mm
- response according to RECIST 1.1 criteria, clinical and serological surveillance ([2]; aprepitant 4200 mg per day orally in 3 doses with ifosfamide and etoposide, from Dec. 9, 2022 to Feb. 15, 2023): stable disease-like response
- Karnofsky [2, 8]: 70%
- impact on the patient compared with the expected course of the disease [2, 8]: positive impact
- symptomatology by the Edmonton scale [2, 8]: no increase in symptoms
- ECOG functional status ([2]; aprepitant 4200 mg per day with ifosfamide and etoposide, since the start of follow-up): 1
- EORTC QLQ-C30 overall score (quality of life) ([2]; aprepitant 4200 mg per day with ifosfamide and etoposide, since the start of therapy): 50%
- tolerance ([2]; aprepitant 4200 mg per day with ifosfamide and etoposide, with supportive treatment): adequate tolerance
- effect on tumour size / growth [3]: somewhat effective; also recorded: slows the growth of the tumours without any net reduction in the tumour sizes
- anti-cancer effects in vitro (cell viability, MTT) [4]: exhibited anti-cancer effects

SMILES: Cc1ccccc1-c1cc(N2CCN(C)CC2)ncc1N(C)C(=O)C(C)(C)c1cc(C(F)(F)F)cc(C(F)(F)F)c1 [netupitant]
- anti-cancer effects in vitro (cell viability, MTT) [4]: exhibited anti-cancer effects

SMILES: C[C@@H](O[C@H]1OCCN(Cc2nc(O)n(P(=O)(O)O)n2)[C@H]1c1ccc(F)cc1)c1cc(C(F)(F)F)cc(C(F)(F)F)c1 [fosaprepitant]
- anti-cancer effects in vitro (cell viability, MTT) [4]: exhibited anti-cancer effects
- therapeutic efficacy against MG-63 xenograft [5]: some therapeutic efficacy
